Converted amounts (≈) assume the structure as drawn.
System: Mycobacterium tuberculosis variant bovis
Assay: Antibacterial activity against Mycobacterium bovis BCG assessed as reduction in cell viability measured after 14 days by microdrop agar proportion test
Assay type: functional
Conditions: 336 h, time 14 day

COC(=O)c1ccc(C(=O)Oc2ccc3c(c2)OC(C)(C)C=C3C)cc1
MIC: 2 µg/mL (≈ 5.68 µM)

Reference: ChEMBL document CHEMBL5252530, “Biological importance of structurally diversified chromenes” (Eur J Med Chem, 2016)
